One series relates to RSV. Kind of series: in vitro RSV inhibitory assay (virus pre-incubated with compound, HEp-2 cells, infected cells counted). Format: cell-based, Human orthopneumovirus (RSV). To be noted: human respiratory syncytial virus, 10 min; RSV incubated with compound 10 min at 37° C., added to HEp-2 cells, 2 dpi.
A further series has as its system SARS-CoV-2. As to the kind of experiment: SARS-CoV-2 viral inhibition assay on Vero E6 cells. The settings on record: Severe acute respiratory syndrome coronavirus 2, Vero C1008, virus incubated with compound 10 min at 37° C., 27 hours post-infection. It counts as cell-based.
For another series, the system named is HEp-2 cells. Kind of series: in vitro cytotoxicity analysis (CellTiter-Glo Luminescent Cell Viability Assay). Format: cell-based, human. On the set-up: unit not given here. The settings on record: without RSV-infection, 48 h post-treatment. Here is the method: FIG. 1A, FIG. 2A, FIG. 3A, FIG. 4A, FIG. 5A, and FIG. 6A show dose-response curves for identified inhibitors against RSV. RSV was incubated with increasing concentrations of compounds for 10 min at 37° C. before the compound-virus mixtures were added to human epithelial cells (HEp-2). 2 dpi, infection rates were measured by counting infected cells. Vehicle-treated cells were set as the reference at 100% and used to normalize the data. Shown values represent mean±SD (n=3). The IC50 was determined by fitting the data to a dose-response curve using nonlinear regression analysis (GraphPad Prism, version 6.02). FIG. 1B, FIG. 2B, FIG. 3B, FIG. 4B, FIG. 5B, and FIG. 6B show dose-response curves for identified inhibitors (the same as identified at the top of the respective figures) in in vitro cytotoxicity analysis. HEp-2 cells were treated with increasing concentration of compounds without RSV-infection to assess potential cytotoxicity of the compounds. 48 h post-treatment cells were analyzed using CellTiter-Glo® Luminescent Cell Viability Assay (Promega) to determine cell viability rates. Vehicle-treated cells were set as the reference at 100% of viability and used to normalize the data. Shown values represent mean+SD (n=3).

The next series can be described thus: stability in solution. Format: physicochemical. The settings on record: 500 μM in DMSO/PBS (5:95 v/v); room temperature or 37° C.; versus 4,5-DCQA (reference).

The structures appear in SMILES notation. A value given as a limit tells only on which side of the number the result lay.

On to `O=C(/C=C/c1ccc(O)c(O)c1)O[C@@H]1[C@H](O)C[C@@](O)(C(=O)O)C[C@H]1OC(=O)/C=C/c1ccc(O)c(O)c1` [4,5-DCQA, reference compound], for which the results for the IC50 in the series on RSV and in the series on SARS-CoV-2 were 1090 nM and 218 nM, respectively. Moreover, the “Cytotoxic concentration on HEp-2 cells” value in the series with HEp-2 cells was above 80000.

In the case of `O=C(OCCCOC(=O)c1cc(O)c(O)c(O)c1)c1cc(O)c(O)c(O)c1` [Compound 1, 3-(3,4,5-trihydroxybenzoyl)oxypropyl 3,4,5-trihydroxybenzoate], in the series with RSV, the IC50 (in general, the concentration at which inhibition is half-maximal) worked out at 129 nM. Further, the “Cytotoxic concentration on HEp-2 cells” value in the series on HEp-2 cells stood at 72737.

For `O=C(OCCCCCOC(=O)c1cc(O)c(O)c(O)c1)c1cc(O)c(O)c(O)c1` [Compound 2, 5-(3,4,5-trihydroxybenzoyl)oxypentyl 3,4,5-trihydroxybenzoate], the IC50 in the series with RSV came to 4960 nM. In the series with HEp-2 cells, the “Cytotoxic concentration on HEp-2 cells” value is above 80000.

With `O=C(OCCCCCCCCOC(=O)c1cc(O)c(O)c(O)c1)c1cc(O)c(O)c(O)c1` [Compound 3, 8-(3,4,5-trihydroxybenzoyl)oxyoctyl 3,4,5-trihydroxybenzoate], the half-maximal inhibitory concentration (IC50) in the series with RSV is 145 nM. Further, the “Cytotoxic concentration on HEp-2 cells” value in the series on HEp-2 cells is recorded as 9197.

For the compound `CC(C)(COC(=O)c1cc(O)c(O)c(O)c1)COC(=O)c1cc(O)c(O)c(O)c1` [Compound 4, [2,2-dimethyl-3-(3,4,5-trihydroxybenzoyl)oxy-propyl]3,4,5-trihydroxybenzoate], the IC50 with RSV amounted to 162 nM. The “Cytotoxic concentration on HEp-2 cells” value with HEp-2 cells was found to be 63163.

Take `O=C(OCCOCCOC(=O)c1cc(O)c(O)c(O)c1)c1cc(O)c(O)c(O)c1` [Compound 5, 2-[2-(3,4,5-trihydroxybenzoyl)oxyethoxy]ethyl 3,4,5-trihydroxybenzoate]: the IC50 in the series on RSV stood at 9330 nM. Further, the “Cytotoxic concentration on HEp-2 cells” value in the series with HEp-2 cells was determined as 638066.

Take `O=C(O[C@@H]1CCC[C@H](OC(=O)c2cc(O)c(O)c(O)c2)C1)c1cc(O)c(O)c(O)c1` [Compound 6, [(1R,3S)-3-(3,4,5-trihydroxybenzoyl)oxycyclohexyl]3,4,5-trihydroxybenzoate]: the IC50 with RSV worked out at 165 nM. Also, the “Cytotoxic concentration on HEp-2 cells” value in the series on HEp-2 cells is recorded as 61709.

Regarding `O=C(OCC(O)COC(=O)c1cc(O)c(O)c(O)c1)c1cc(O)c(O)c(O)c1` [Compound 7, [2-hydroxy-3-(3,4,5-trihydroxybenzoyl)oxy-propyl]3,4,5-trihydroxybenzoate], in the series on RSV, the IC50 was 339 nM. The “Cytotoxic concentration on HEp-2 cells” value in the series on HEp-2 cells is given as above 80000.

For the compound `NC(COC(=O)c1cc(O)c(O)c(O)c1)COC(=O)c1cc(O)c(O)c(O)c1` [Compound 8, [2-amino-3-(3,4,5-trihydroxybenzoyl)oxy-propyl]3,4,5-trihydroxybenzoate], in the series on RSV, the IC50 was found to be 87.7 nM. In addition, the “Cytotoxic concentration on HEp-2 cells” value in the series with HEp-2 cells came to 66234.

On to `O=C(OCC(COC(=O)c1cc(O)c(O)c(O)c1)OC(=O)c1cc(O)c(O)c(O)c1)c1cc(O)c(O)c(O)c1` [Compound 9, 2,3-bis[(3,4,5-trihydroxybenzoyl)oxy]propyl 3,4,5-trihydroxybenzoate], for which the IC50 with RSV was 55.5 nM. Besides, the “Cytotoxic concentration on HEp-2 cells” value in the series with HEp-2 cells came out at 49099.5.

Consider `O=C(OCC(COC(=O)c1cc(O)c(O)c(O)c1)COC(=O)c1cc(O)c(O)c(O)c1)c1cc(O)c(O)c(O)c1` [Compound 10, [3-(3,4,5-trihydroxybenzoyl)oxy-2-[(3,4,5-trihydroxybenzoyl)oxymethyl]propyl]3,4,5-trihydroxybenzoate], for which the IC50 in the series on RSV is 47.2 nM. In the series with HEp-2 cells, the “Cytotoxic concentration on HEp-2 cells” value turned out to be 75145.

With `CC(COC(=O)c1cc(O)c(O)c(O)c1)(COC(=O)c1cc(O)c(O)c(O)c1)COC(=O)c1cc(O)c(O)c(O)c1` [Compound 11, [2-methyl-3-(3,4,5-trihydroxybenzoyl)oxy-2-[(3,4,5-trihydroxybenzoyl)oxymethyl]-propyl]3,4,5-trihydroxybenzoate], in the series on RSV, the IC50 is 36.7 nM. For the same compound, the “Cytotoxic concentration on HEp-2 cells” value with HEp-2 cells is recorded as 47303.

As to `CC(COC(=O)c1ccccc1)(COC(=O)c1cc(O)c(O)c(O)c1)COC(=O)c1cc(O)c(O)c(O)c1` [Compound 12, [2-(benzoyloxymethyl)-2-methyl-3-(3,4,5-trihydroxybenzoyl)oxy-propyl]3,4,5-trihydroxybenzoate], the IC50 with RSV stood at 105 nM. The “Cytotoxic concentration on HEp-2 cells” value in the series with HEp-2 cells is reported as 34098.5.

Take `CC(COC(=O)c1ccccc1)(COC(=O)c1ccccc1)COC(=O)c1cc(O)c(O)c(O)c1` [Compound 13, [3-benzoyloxy-2-(benzoyloxymethyl)-2-methyl-propyl]3,4,5-trihydroxybenzoate]: the IC50 with RSV stood at 480 nM. The “Cytotoxic concentration on HEp-2 cells” value in the series with HEp-2 cells is listed as 13042.

With `O=C(NCCCNC(=O)c1cc(O)c(O)c(O)c1)c1cc(O)c(O)c(O)c1` [Compound 14, 3,4,5-trihydroxy-N-[3-[(3,4,5-trihydroxybenzoyl)amino]propyl]benzamide], the IC50 in the series on RSV stood at 367 nM. For the same compound, the “Cytotoxic concentration on HEp-2 cells” value in the series on HEp-2 cells worked out at 15677.

As for `O=C(NCCCCCNC(=O)c1cc(O)c(O)c(O)c1)c1cc(O)c(O)c(O)c1` [Compound 15, 3,4,5-trihydroxy-N-[5-[(3,4,5-trihydroxybenzoyl)amino]pentyl]benzamide], in the series with RSV, the IC50 is 408 nM. Moreover, the “Cytotoxic concentration on HEp-2 cells” value in the series on HEp-2 cells is given as 45401.

As for `O=C(NCCCCCCCCCCNC(=O)c1cc(O)c(O)c(O)c1)c1cc(O)c(O)c(O)c1` [Compound 16, 3,4,5-trihydroxy-N-[10-[(3,4,5-trihydroxybenzoyl)amino]decyl]benzamide], in the series with RSV, the concentration for half-maximal inhibition (IC50) was 767 nM. In the series with HEp-2 cells, the “Cytotoxic concentration on HEp-2 cells” value is recorded as above 80000.

For the compound `O=C(NCCN(CCNC(=O)c1cc(O)c(O)c(O)c1)C(=O)c1cc(O)c(O)c(O)c1)c1cc(O)c(O)c(O)c1` [Compound 17, 3,4,5-trihydroxy-N-[2-[(3,4,5-trihydroxybenzoyl)-[2-[(3,4,5-trihydroxybenzoyl)-amino]-ethyl]amino]ethyl]benzamide], the IC50 in the series on RSV came to 155 nM. Besides, the “Cytotoxic concentration on HEp-2 cells” value with HEp-2 cells turned out to be 36216.

With `CC(CNC(=O)c1cc(O)c(O)c(O)c1)(CNC(=O)c1cc(O)c(O)c(O)c1)CNC(=O)c1cc(O)c(O)c(O)c1` [Compound 18, 3,4,5-trihydroxy-N-[2-methyl-3-[(3,4,5-trihydroxybenzoyl)amino]-2-[[(3,4,5-trihydroxy-benzoyl)amino]methyl]propyl]benzamide], the IC50 with RSV was determined as 59.5 nM. Besides, in the series with HEp-2 cells, the “Cytotoxic concentration on HEp-2 cells” value is above 80000.

For `CC(CNC(=O)c1ccc(O)cc1)(CNC(=O)c1ccc(O)cc1)CNC(=O)c1ccc(O)cc1` [Compound 19, 4-hydroxy-N-[3-[(4-hydroxybenzoyl)amino]-2-[[(4-hydroxybenzoyl)amino]methyl]-2-methyl-propyl]benzamide], the “Cytotoxic concentration on HEp-2 cells” value in the series with HEp-2 cells is listed as above 80000.

As for `CC(CNC(=O)c1cccc(O)c1)(CNC(=O)c1cccc(O)c1)CNC(=O)c1cccc(O)c1` [Compound 20, 3-hydroxy-N-[3-[(3-hydroxybenzoyl)amino]-2-[[(3-hydroxybenzoyl)amino]methyl]-2-methyl-propyl]benzamide], the “Cytotoxic concentration on HEp-2 cells” value in the series with HEp-2 cells is 76260.

As to `CC(CNC(=O)c1ccc2c(c1)OCO2)(CNC(=O)c1ccc2c(c1)OCO2)CNC(=O)c1ccc2c(c1)OCO2` [Compound 21, N-[3-(1,3-benzodioxole-5-carbonylamino)-2-[(1,3-benzodioxole-5-carbonylamino)-methyl]-2-methyl-propyl]-1,3-benzodioxole-5-carboxamide], in the series on HEp-2 cells, the “Cytotoxic concentration on HEp-2 cells” value is given as above 80000.

For `CC(CNC(=O)c1ccc(O)cc1O)(CNC(=O)c1ccc(O)cc1O)CNC(=O)c1ccc(O)cc1O` [Compound 22, N-[3-[(2,4-dihydroxybenzoyl)amino]-2-[[(2,4-dihydroxybenzoyl)amino]methyl]-2-methyl-propyl]-2,4-dihydroxy-benzamide], the IC50 in the series on SARS-CoV-2 amounted to 75.1 nM. Also, the “Cytotoxic concentration on HEp-2 cells” value in the series with HEp-2 cells is listed as 17473.

As for `CC(CNC(=O)c1ccc(O)c(O)c1)(CNC(=O)c1ccc(O)c(O)c1)CNC(=O)c1ccc(O)c(O)c1` [Compound 23, N-[3-[(3,4-dihydroxybenzoyl)amino]-2-[[(3,4-dihydroxybenzoyl)amino]methyl]-2-methyl-propyl]-3,4-dihydroxy-benzamide], the IC50 with RSV is 35.7 nM; in the series on SARS-CoV-2 it was 26 nM. In the series on HEp-2 cells, the “Cytotoxic concentration on HEp-2 cells” value is given as above 80000. In addition, the stability in solution result in the series “stability in solution” was “improved stability”.

Turning to `CC(CNC(=O)c1cccc(O)c1O)(CNC(=O)c1cccc(O)c1O)CNC(=O)c1cccc(O)c1O` [Compound 24, N-[3-[(2,3-dihydroxybenzoyl)amino]-2-[[(2,3-dihydroxybenzoyl)amino]methyl]-2-methyl-propyl]-2,3-dihydroxy-benzamide], in the series on HEp-2 cells, the “Cytotoxic concentration on HEp-2 cells” value is listed as 5822.5.
